Columns and labels:
Format in all cases: cell-based
Conditions in all cases: 24 hours of compound treatment, 50 nM and 500 nM tested (concentration behind the class not stated)
WEE1 = target: T1, WEE1 (Homo sapiens, UniProt P30291+Q96SW2); assay: Western-blot assay of substrate protein degradation in hPBMCs, WEE1
T1 construct: endogenous in cells; host or cells: hPBMCs (Milecell Biotechnologies)

IKZF3 = target: T2, IKZF3 (Homo sapiens, UniProt Q96SW2+Q9UKT9); assay: Western-blot assay of substrate protein degradation in hPBMCs, IKZF3
T2 construct: endogenous in cells; host or cells: hPBMCs (Milecell Biotechnologies)

IKZF2 = target: T3, IKZF2 (Homo sapiens, UniProt Q96SW2+Q9UKS7); assay: Western-blot assay of substrate protein degradation in hPBMCs, IKZF2
T3 construct: endogenous in cells; host or cells: hPBMCs (Milecell Biotechnologies)

IKZF1 = target: T4, IKZF1 (Homo sapiens, UniProt Q13422+Q96SW2); assay: Western-blot assay of substrate protein degradation in hPBMCs, IKZF1
T4 construct: endogenous in cells; host or cells: hPBMCs (Milecell Biotechnologies)

GSPT1 = target: T5, GSPT1 (Homo sapiens, UniProt P15170+Q96SW2); assay: Western-blot assay of substrate protein degradation in hPBMCs, GSPT1
T5 construct: endogenous in cells; host or cells: hPBMCs (Milecell Biotechnologies)

CK1α = target: T6, CK1α (Homo sapiens, UniProt P48729+Q96SW2); assay: Western-blot assay of substrate protein degradation in hPBMCs, CK1α
T6 construct: endogenous in cells; host or cells: hPBMCs (Milecell Biotechnologies)
T6 sequence (P48729 whole entry): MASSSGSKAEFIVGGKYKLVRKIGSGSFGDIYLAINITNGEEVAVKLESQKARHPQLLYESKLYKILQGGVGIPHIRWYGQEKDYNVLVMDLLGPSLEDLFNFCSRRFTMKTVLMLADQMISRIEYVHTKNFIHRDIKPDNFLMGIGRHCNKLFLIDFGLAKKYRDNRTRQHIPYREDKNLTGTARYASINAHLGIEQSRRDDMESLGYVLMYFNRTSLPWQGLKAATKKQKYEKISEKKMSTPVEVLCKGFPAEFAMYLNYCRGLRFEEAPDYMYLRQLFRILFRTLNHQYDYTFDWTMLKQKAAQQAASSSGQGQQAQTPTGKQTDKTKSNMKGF
T6 sequence (Q96SW2 whole entry): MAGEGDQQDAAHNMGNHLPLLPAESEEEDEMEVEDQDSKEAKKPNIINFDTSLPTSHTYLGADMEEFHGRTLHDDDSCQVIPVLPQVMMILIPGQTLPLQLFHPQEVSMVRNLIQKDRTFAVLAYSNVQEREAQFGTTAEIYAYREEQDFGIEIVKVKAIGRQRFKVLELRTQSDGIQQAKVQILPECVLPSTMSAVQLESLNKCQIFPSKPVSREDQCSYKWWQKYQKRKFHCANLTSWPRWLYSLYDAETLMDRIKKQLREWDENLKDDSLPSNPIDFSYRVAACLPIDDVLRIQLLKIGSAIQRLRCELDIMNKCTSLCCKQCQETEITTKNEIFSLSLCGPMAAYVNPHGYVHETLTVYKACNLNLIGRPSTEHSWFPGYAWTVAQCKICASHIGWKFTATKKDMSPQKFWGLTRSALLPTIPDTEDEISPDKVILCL
T6 sequence (Q16531 whole entry partner): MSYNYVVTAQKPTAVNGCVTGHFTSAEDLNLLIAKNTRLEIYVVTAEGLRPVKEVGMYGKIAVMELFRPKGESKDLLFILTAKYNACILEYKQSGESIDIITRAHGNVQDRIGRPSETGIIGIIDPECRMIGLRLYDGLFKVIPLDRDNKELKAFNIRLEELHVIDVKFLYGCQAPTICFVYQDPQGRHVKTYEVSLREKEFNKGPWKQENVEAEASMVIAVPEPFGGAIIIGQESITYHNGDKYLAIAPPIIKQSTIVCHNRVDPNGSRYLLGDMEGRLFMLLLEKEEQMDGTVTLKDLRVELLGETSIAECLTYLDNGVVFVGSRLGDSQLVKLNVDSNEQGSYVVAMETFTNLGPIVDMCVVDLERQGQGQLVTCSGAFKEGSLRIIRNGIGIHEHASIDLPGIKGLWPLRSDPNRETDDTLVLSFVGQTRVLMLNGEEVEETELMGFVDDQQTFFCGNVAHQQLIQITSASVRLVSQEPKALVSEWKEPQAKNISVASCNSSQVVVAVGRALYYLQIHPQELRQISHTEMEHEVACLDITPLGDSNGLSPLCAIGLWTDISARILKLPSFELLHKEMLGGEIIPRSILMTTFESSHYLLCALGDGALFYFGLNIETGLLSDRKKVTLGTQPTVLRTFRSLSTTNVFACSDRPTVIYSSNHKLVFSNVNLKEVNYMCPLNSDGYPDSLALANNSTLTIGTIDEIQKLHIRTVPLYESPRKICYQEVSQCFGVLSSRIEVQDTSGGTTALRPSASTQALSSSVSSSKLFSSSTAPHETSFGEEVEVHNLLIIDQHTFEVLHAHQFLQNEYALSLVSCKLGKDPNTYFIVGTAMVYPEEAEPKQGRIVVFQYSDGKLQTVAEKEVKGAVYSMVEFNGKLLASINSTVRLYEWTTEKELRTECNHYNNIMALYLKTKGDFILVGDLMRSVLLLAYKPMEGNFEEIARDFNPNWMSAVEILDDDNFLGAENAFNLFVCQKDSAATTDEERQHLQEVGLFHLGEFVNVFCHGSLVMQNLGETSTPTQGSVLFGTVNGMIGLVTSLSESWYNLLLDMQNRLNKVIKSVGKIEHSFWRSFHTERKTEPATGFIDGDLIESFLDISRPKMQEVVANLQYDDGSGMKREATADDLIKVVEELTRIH

T1 sequence (P30291 whole entry): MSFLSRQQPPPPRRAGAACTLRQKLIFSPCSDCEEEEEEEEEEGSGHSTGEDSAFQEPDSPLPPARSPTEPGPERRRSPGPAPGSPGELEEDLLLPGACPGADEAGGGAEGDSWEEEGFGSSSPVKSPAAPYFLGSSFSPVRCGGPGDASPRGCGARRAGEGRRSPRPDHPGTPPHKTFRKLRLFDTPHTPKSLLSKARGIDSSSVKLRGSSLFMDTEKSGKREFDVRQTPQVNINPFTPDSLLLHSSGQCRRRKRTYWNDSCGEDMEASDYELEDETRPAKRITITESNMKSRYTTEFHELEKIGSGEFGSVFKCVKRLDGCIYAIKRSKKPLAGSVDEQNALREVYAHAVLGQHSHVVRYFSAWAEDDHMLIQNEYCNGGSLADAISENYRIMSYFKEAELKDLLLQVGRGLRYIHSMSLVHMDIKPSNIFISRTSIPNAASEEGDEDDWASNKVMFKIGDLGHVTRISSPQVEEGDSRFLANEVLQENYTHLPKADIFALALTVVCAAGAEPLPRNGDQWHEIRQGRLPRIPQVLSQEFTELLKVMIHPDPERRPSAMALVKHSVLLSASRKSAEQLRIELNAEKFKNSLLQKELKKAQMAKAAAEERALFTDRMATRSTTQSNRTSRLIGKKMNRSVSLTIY
T1 sequence (Q96SW2 whole entry): as the sequence (Q96SW2 whole entry) above
T1 sequence (Q16531 whole entry partner): as the sequence (Q16531 whole entry partner) above
T4 sequence (Q13422 whole entry): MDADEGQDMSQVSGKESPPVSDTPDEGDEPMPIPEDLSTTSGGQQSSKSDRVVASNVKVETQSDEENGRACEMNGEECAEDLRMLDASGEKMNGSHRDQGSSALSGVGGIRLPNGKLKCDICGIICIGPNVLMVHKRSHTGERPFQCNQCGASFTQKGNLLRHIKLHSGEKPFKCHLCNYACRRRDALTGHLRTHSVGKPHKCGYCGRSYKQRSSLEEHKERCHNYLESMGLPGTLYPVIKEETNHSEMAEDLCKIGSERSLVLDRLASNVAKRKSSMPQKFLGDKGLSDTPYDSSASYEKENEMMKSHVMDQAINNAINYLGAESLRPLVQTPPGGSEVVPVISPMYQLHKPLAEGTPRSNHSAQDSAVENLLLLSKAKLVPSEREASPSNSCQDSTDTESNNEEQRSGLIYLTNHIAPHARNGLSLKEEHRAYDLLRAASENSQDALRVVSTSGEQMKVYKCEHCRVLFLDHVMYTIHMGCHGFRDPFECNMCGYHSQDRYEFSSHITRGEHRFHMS
T4 sequence (Q96SW2 whole entry): as the sequence (Q96SW2 whole entry) above
T4 sequence (Q16531 whole entry partner): as the sequence (Q16531 whole entry partner) above
T3 sequence (Q9UKS7 whole entry): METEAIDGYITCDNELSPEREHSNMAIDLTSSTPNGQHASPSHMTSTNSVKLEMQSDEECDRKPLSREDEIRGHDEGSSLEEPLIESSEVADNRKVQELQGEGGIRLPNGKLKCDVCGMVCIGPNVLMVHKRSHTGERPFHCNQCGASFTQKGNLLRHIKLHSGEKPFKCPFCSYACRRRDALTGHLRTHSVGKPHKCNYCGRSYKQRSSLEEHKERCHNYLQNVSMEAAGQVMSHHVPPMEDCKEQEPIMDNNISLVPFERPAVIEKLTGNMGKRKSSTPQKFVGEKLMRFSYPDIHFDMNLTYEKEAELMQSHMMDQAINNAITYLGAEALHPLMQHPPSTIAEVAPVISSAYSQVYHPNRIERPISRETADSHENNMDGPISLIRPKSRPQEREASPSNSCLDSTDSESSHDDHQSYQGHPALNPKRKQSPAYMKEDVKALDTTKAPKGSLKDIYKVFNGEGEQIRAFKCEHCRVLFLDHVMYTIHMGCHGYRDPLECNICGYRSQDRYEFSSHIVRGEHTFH
T3 sequence (Q96SW2 whole entry): as the sequence (Q96SW2 whole entry) above
T3 sequence (Q16531 whole entry partner): as the sequence (Q16531 whole entry partner) above
T5 sequence (P15170 whole entry): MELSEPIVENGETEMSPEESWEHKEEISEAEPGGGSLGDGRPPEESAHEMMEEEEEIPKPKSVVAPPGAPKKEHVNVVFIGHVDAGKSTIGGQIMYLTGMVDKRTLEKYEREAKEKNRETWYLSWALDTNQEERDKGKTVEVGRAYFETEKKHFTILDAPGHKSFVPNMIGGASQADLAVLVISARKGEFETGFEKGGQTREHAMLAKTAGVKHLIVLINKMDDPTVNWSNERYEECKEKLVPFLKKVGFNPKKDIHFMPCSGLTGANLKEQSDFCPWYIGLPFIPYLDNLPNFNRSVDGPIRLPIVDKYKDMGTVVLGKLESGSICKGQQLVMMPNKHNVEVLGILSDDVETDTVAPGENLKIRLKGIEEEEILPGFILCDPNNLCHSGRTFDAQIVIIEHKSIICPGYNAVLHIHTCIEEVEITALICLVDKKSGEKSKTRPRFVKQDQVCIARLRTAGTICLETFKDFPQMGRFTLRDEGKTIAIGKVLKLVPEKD
T5 sequence (Q96SW2 whole entry): as the sequence (Q96SW2 whole entry) above
T5 sequence (Q16531 whole entry partner): as the sequence (Q16531 whole entry partner) above

| SMILES | Weel substrate protein remaining % (WEE1) | IKZF3 substrate protein remaining % (IKZF3) | IKZF2 substrate protein remaining % (IKZF2) | IKZF 1 substrate protein remaining % (IKZF1) | GSPT1 substrate protein remaining % (GSPT1) | CK1a substrate protein remaining % (CK1α) |
| --- | --- | --- | --- | --- | --- | --- |
| O=C1CCC(N2C(=O)c3ccc(CN4CCN(c5ccc(Cl)cc5)CC4)cc3C2=O)C(=O)N1 (stereo not drawn) [GT-06275, 5-((4-(4-chlorophenyl)piperazin-1-yl)methyl)-2-(2,6-dioxopiperidin-3-yl)isoindoline-1,3-dione] | B (80%< substrate protein remaining %≤ 100%) | B (80%< substrate protein remaining %≤ 100%) | B (80%< substrate protein remaining %≤ 100%) | B (80%< substrate protein remaining %≤ 100%) | A (0% ≤ substrate protein remaining % ≤ 80%) | B (80%< substrate protein remaining %≤ 100%) |
| Cc1cccc(N2CCN(Cc3ccc4c(c3)C(=O)N(C3CCC(=O)NC3=O)C4=O)CC2)c1 (stereo not drawn) [GT-06276, 2-(2,6-dioxopiperidin-3-yl)-5-((4-(m-tolyl)piperazin-1-yl)methyl)isoindoline-1,3-dione] | B (80%< substrate protein remaining %≤ 100%) | B (80%< substrate protein remaining %≤ 100%) | A (0% ≤ substrate protein remaining % ≤ 80%) | A (0% ≤ substrate protein remaining % ≤ 80%) | A (0% ≤ substrate protein remaining % ≤ 80%) | B (80%< substrate protein remaining %≤ 100%) |
| Cc1ccc(N2CCN(Cc3ccc4c(c3)C(=O)N(C3CCC(=O)NC3=O)C4=O)CC2)cc1 (stereo not drawn) [GT-06277, 2-(2,6-dioxopiperidin-3-yl)-5-((4-(p-tolyl)piperazin-1-yl)methyl)isoindoline-1,3-dione] | B (80%< substrate protein remaining %≤ 100%) | B (80%< substrate protein remaining %≤ 100%) | B (80%< substrate protein remaining %≤ 100%) | B (80%< substrate protein remaining %≤ 100%) | A (0% ≤ substrate protein remaining % ≤ 80%) | B (80%< substrate protein remaining %≤ 100%) |
| Cc1cc(C2=CCN(Cc3ccc4c(c3)C(=O)N(C3CCC(=O)NC3=O)C4=O)CC2)cs1 (stereo not drawn) [GT-06279, 2-(2,6-dioxopiperidin-3-yl)-5-((4-(5-methylthiophen-3-yl)-3,6-dihydropyridin-1(2H)-yl)methyl)isoindoline-1,3-dione] | A (0% ≤ substrate protein remaining % ≤ 80%) | A (0% ≤ substrate protein remaining % ≤ 80%) | A (0% ≤ substrate protein remaining % ≤ 80%) | A (0% ≤ substrate protein remaining % ≤ 80%) | A (0% ≤ substrate protein remaining % ≤ 80%) | A (0% ≤ substrate protein remaining % ≤ 80%) |
| Cc1ccsc1C1CCN(Cc2ccc3c(c2)C(=O)N(C2CCC(=O)NC2=O)C3=O)CC1 (stereo not drawn) [GT-06280, 2-(2,6-dioxopiperidin-3-yl)-5-((4-(3-methylthiophen-2-yl)piperidin-1-yl)methyl)isoindoline-1,3-dione] | B (80%< substrate protein remaining %≤ 100%) | B (80%< substrate protein remaining %≤ 100%) | B (80%< substrate protein remaining %≤ 100%) | B (80%< substrate protein remaining %≤ 100%) | A (0% ≤ substrate protein remaining % ≤ 80%) | B (80%< substrate protein remaining %≤ 100%) |
| O=C1CCC(N2C(=O)c3ccc(CN4CCC(c5ccsc5)CC4)cc3C2=O)C(=O)N1 (stereo not drawn) [GT-06281, 2-(2,6-dioxopiperidin-3-yl)-5-((4-(thiophen-3-yl)piperidin-1-yl)methyl)isoindoline-1,3-dione] | B (80%< substrate protein remaining %≤ 100%) | B (80%< substrate protein remaining %≤ 100%) | B (80%< substrate protein remaining %≤ 100%) | B (80%< substrate protein remaining %≤ 100%) | A (0% ≤ substrate protein remaining % ≤ 80%) | B (80%< substrate protein remaining %≤ 100%) |
| Cc1cscc1C1CCN(Cc2ccc3c(c2)C(=O)N(C2CCC(=O)NC2=O)C3=O)CC1 (stereo not drawn) [GT-06282, 2-(2,6-dioxopiperidin-3-yl)-5-((4-(4-methylthiophen-3-yl)piperidin-1-yl)methyl)isoindoline-1,3-dione] | B (80%< substrate protein remaining %≤ 100%) | B (80%< substrate protein remaining %≤ 100%) | B (80%< substrate protein remaining %≤ 100%) | B (80%< substrate protein remaining %≤ 100%) | A (0% ≤ substrate protein remaining % ≤ 80%) | B (80%< substrate protein remaining %≤ 100%) |
| Cc1cc(C2CCN(Cc3ccc4c(c3)C(=O)N(C3CCC(=O)NC3=O)C4=O)CC2)cs1 (stereo not drawn) [GT-06283, 2-(2,6-dioxopiperidin-3-yl)-5-((4-(5-methylthiophen-3-yl)piperidin-1-yl)methyl)isoindoline-1,3-dione] | B (80%< substrate protein remaining %≤ 100%) | B (80%< substrate protein remaining %≤ 100%) | B (80%< substrate protein remaining %≤ 100%) | B (80%< substrate protein remaining %≤ 100%) | A (0% ≤ substrate protein remaining % ≤ 80%) | B (80%< substrate protein remaining %≤ 100%) |
| O=C1CCC(N2C(=O)c3ccc(CN4CCC(c5ccco5)CC4)cc3C2=O)C(=O)N1 (stereo not drawn) [GT-06284, 2-(2,6-dioxopiperidin-3-yl)-5-((4-(furan-2-yl)piperidin-1-yl)methyl)isoindoline-1,3-dione] | B (80%< substrate protein remaining %≤ 100%) | B (80%< substrate protein remaining %≤ 100%) | B (80%< substrate protein remaining %≤ 100%) | B (80%< substrate protein remaining %≤ 100%) | A (0% ≤ substrate protein remaining % ≤ 80%) | B (80%< substrate protein remaining %≤ 100%) |
| O=C1CCC(N2C(=O)c3ccc(CN4CCC(c5ccoc5)CC4)cc3C2=O)C(=O)N1 (stereo not drawn) [GT-06285, 2-(2,6-dioxopiperidin-3-yl)-5-((4-(furan-3-yl)piperidin-1-yl)methyl)isoindoline-1,3-dione] | B (80%< substrate protein remaining %≤ 100%) | B (80%< substrate protein remaining %≤ 100%) | B (80%< substrate protein remaining %≤ 100%) | B (80%< substrate protein remaining %≤ 100%) | A (0% ≤ substrate protein remaining % ≤ 80%) | B (80%< substrate protein remaining %≤ 100%) |
| O=C1CCC(N2C(=O)c3ccc(CN4CCN(c5ccccc5)CC4)cc3C2=O)C(=O)N1 (stereo not drawn) [GT-06286, 2-(2,6-dioxopiperidin-3-yl)-5-((4-phenylpiperazin-1-yl)methyl)isoindoline-1,3-dione] | B (80%< substrate protein remaining %≤ 100%) | B (80%< substrate protein remaining %≤ 100%) | B (80%< substrate protein remaining %≤ 100%) | B (80%< substrate protein remaining %≤ 100%) | A (0% ≤ substrate protein remaining % ≤ 80%) | B (80%< substrate protein remaining %≤ 100%) |
| COc1ccccc1N1CCN(Cc2ccc3c(c2)C(=O)N(C2CCC(=O)NC2=O)C3=O)CC1 (stereo not drawn) [GT-06287, 2-(2,6-dioxopiperidin-3-yl)-5-((4-(2-methoxyphenyl)piperazin-1-yl)methyl)isoindoline-1,3-dione] | B (80%< substrate protein remaining %≤ 100%) | B (80%< substrate protein remaining %≤ 100%) | B (80%< substrate protein remaining %≤ 100%) | B (80%< substrate protein remaining %≤ 100%) | A (0% ≤ substrate protein remaining % ≤ 80%) | B (80%< substrate protein remaining %≤ 100%) |
